Laboratory results: US9365554B2, “Viral polymerase inhibitors” (BIOTA SCIENTIFIC MANAGEMENT PTY LTD, priority 2012, dated 2016)

What was measured:
1b (BK) NS5BΔ21 = target: T1, 1b (BK) NS5BΔ21 (Hepatitis C virus genotype 1b, UniProt P26663); test: HCV Polymerase Inhibition Assay; assay type: biochemical; conditions: in each of the HCV assays tested (polymerase and replicon assays)
T1 construct: 100 nM, 1b (BK) NS5BΔ21
Experimental: HCV polymerase reactions were carried out using a modified method of Howe et al., Antimicrobial Agents and Chemotherapy 2004 48(12): 4813-4821. Reactions contained a final concentration of, 0.5% DMSO, 100 nM, 1b (BK) NS5BΔ21, 20 mM Tris-HCl pH 7.5, 5 mM MgCl2, 5 mM MnCl2, 3 mM DTT, 0.05% BSA, 0.2 U/μL RNasin, 10 μg/mL Poly(rC) template, GTP (at Km) and 0.05 μCi/μL ^33P-GTP in a total reaction volume of 50 μL. Compounds were tested in a three fold dilution series, for example starting from 50 μM. Reactions were initiated with the addition of GTP and terminated after 90 min with 50 μL ice cold 0.2 M EDTA. Terminated reactions were transferred to DEAE 96-well filter plates, unincorporated nucleotides washed from the filters and 50 μL scintillation fluid added prior to reading on a scintillation counter. The compound concentration that reduced ^33P-GTP incorporation by 50% (IC50) was calculated using non-linear regression.

[1] = Aqueous Solubility (laser nephelometry); assay type: physicochemical; conditions: at both pH2 and pH6.5; good solubility when >25 ug/mL
Experimental: Test compounds prepared in DMSO were screened in duplicate over a range of concentrations (1.6-100 ug/mL) in different aqueous media (for example a pH6.5 buffers which are relevant to the stomach and upper regions of the small intestine and therefore important when predicting the amount of drug likely to be in solution following oral administration). Test compounds were serially diluted in 100% DMSO ranging from 10-0.16 mg/mL. These titrated DMSO stocks were then further diluted 1:100 with assay buffer and added to test plates (UV Star Griener 384 well plates), maintaining the DMSO concentration at 1%.

T1 sequence (P26663 2420-2989, stated change not applied): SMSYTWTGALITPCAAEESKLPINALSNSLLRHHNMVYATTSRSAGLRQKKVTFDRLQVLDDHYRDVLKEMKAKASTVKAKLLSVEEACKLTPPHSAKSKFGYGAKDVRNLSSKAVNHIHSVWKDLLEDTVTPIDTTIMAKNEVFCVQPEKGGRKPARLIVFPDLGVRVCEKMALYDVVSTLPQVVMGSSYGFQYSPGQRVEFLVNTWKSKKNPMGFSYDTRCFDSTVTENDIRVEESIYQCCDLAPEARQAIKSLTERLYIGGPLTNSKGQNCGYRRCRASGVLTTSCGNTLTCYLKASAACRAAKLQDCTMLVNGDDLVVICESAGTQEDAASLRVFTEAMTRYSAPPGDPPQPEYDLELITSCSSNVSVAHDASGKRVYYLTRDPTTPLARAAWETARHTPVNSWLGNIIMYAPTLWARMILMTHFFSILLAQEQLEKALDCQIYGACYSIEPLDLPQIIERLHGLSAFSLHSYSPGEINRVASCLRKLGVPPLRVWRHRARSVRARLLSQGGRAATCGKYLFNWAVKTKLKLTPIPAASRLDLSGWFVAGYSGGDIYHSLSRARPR

For CCN(c1cc2nn(-c3ccc(C)cn3)c(C(=O)NC)c2cc1C1CC1)S(C)(=O)=O [Compound 5, 5-cyclopropyl-6-[ethyl(methylsulfonyl)amino]-N-methyl-2-(5-methylpyridin-2-yl)-2H-indazole-3-carboxamide], the “times more potent than Compound A” value (1b (BK) NS5BΔ21) was “at least 10 times” and the “solubility (in words)” value [1] was “good solubility”.
With CCN(c1cc2nn(-c3ccc(C)nc3)c(C(=O)NC)c2cc1C1CC1)S(C)(=O)=O [Compound A, 5-Cyclopropyl-6-[ethyl(methylsulfonyl)amino]-N-methyl-2-(6-methylpyridin-3-yl)-2H-indazole-3-carboxamide, reference compound] the “solubility (in words)” value [1] was “very poorly soluble”.
